The results in this text go back to BindingDB's records for patent US10035761 (Revivia Pharmaceuticals, Inc., 2018).

The target of test [1] is Sodium-dependent noradrenaline transporter (Homo sapiens, UniProt P23975). Nature of the test: In Vitro Pharmacology Assay. On the procedure:
(§1) The monoamine transporters inhibitory activities of selected cycloalkylmethylamines of Formula (I) are reported herein. The compounds were evaluated using well established radioligand binding assays protocols (Galli, A. et al., J. Exp. Biol. 1995, 198, 2197-2212; Giros, B. et al., Trends Pharmcol. Sci. 1993, 14, 43-49; Gu, H. et al., J. Biol. Chem. 1994, 269(10), 7124-7130; Shearman, L. P. et al, Am. J. Physiol., 1998, 275(6 Pt 1), C1621-1629; Wolf, W. A. et al., J. Biol. Chem. 1992, 267(29), 20820-20825). The human recombinant transporter proteins dopamine (DAT), norepinephrine (NET) and serotonin (SERT) were selected for the in vitro assays. The radioligand binding assays were carried out at 11 different test concentrations 0.1 nM to 1 μM.

Test [2] concerns the target Sodium-dependent serotonin transporter (Homo sapiens, UniProt P31645). Kind of test: In Vitro Pharmacology Assay. On the procedure: as §1

Chain of Sodium-dependent noradrenaline transporter (P23975 whole entry): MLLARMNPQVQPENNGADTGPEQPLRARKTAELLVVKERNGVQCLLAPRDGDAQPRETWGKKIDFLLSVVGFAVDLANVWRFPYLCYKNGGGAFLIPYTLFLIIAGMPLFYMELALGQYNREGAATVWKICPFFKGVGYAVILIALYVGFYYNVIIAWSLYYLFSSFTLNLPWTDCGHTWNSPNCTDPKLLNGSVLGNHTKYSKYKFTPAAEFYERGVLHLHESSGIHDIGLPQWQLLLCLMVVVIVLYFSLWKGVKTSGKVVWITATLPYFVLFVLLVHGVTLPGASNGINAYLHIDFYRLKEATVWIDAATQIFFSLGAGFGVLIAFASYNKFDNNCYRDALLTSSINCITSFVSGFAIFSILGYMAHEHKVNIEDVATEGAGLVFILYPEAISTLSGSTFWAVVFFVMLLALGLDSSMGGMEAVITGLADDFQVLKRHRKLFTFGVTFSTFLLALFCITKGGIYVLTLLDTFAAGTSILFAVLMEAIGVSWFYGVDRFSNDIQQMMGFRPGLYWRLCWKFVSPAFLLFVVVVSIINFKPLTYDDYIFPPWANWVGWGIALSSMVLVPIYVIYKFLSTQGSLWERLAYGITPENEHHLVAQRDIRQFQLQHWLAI
Chain of Sodium-dependent serotonin transporter (P31645 whole entry): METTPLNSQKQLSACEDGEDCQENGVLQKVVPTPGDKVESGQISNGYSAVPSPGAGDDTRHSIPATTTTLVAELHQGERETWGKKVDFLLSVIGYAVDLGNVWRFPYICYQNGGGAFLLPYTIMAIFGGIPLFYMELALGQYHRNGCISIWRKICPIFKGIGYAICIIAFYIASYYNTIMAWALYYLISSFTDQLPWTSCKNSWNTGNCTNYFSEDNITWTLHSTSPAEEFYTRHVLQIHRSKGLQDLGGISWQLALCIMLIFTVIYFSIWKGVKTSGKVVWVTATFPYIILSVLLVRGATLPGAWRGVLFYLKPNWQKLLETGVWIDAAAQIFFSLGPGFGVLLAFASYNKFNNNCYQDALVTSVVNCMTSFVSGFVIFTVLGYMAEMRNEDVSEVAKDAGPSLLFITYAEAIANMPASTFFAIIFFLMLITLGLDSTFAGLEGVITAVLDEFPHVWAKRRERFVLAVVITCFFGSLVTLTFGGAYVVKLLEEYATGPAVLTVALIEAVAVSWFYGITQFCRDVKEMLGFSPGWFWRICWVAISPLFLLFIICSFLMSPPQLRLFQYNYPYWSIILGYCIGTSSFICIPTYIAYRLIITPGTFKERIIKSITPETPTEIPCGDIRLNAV

In general, Ki refers to the equilibrium dissociation constant of an inhibitor or competing ligand from its target. Low values mean a stronger hold on the target, high ones a looser hold on the target. As for `CCSCCNC(CC(C)C)C1(c2ccc(Cl)c(Cl)c2)CCC1` (configuration not stated) [US10035761, Compound 13f], the results for the Ki in test [1] and in test [2] were 119 nM and 224 nM, respectively.
